Data taken from US5206237A, “Benzodiazepine analogs” (Merck & Co., Inc., priority 1991, dated 1993).

Key:
[1] = target: T1, CCK receptor (brain) (Cavia porcellus, UniProt H0VZC5); assay: CCK receptor binding (Brain), inhibition of 125I-CCK binding; set-up: species or system guinea pig (male Hartley); settings: guinea pig cerebral cortex, 125I-CCK-33, 25° C., 2 hours; read-out: IC^50 ^125 I-CCK Brain
T1 construct: Cerebral cortex was dissected and used as a receptor source; from tissue; host or cells: guinea pig cerebral cortex, membrane preparation
Protocol: 2. CCK Receptor Binding (Brain)
CCK-33 was radiolabeled and the binding was performed according to the description for the pancreas method with modifications according to Saito et al., J. Neurochem. 37, 483-490, 1981.
Male Hartley guinea pigs (300-500 g) were sacrificed by decapitation and the brains were removed and placed in ice-cold 50 mM, Tris HCl plus 7.58 g/l Trizma-7.4 (pH 7.4 at 25° C.). Cerebral cortex was dissected and used as a receptor source. Each gram of fresh guinea pig brain tissue was homogenized in 10 ml of Tris Trizma buffer with a Brinkman polytron PT-10. The homogenates were centrifuged at 42,000 g for 15 min. […] All assays were run in duplicate or triplicate. The reaction mixtures were incubated at 25° C. for 2 hours and centrifuged in a Beckman Microfuge (4 minutes) immediately after adding 1 ml of ice-cold incubation buffer. The supernatant was aspirated and discarded, pellets were counted with a Beckman gamma 5000.

[2] = target: T2, CCK receptor (pancreas) (Rattus norvegicus, UniProt P30551); assay: CCK receptor binding (Pancreas), inhibition of 125I-CCK binding; set-up: species or system rat (male Sprague-Dawley); settings: 125I-CCK-33, 37° C., 30 minutes, read-out: IC^50 ^125 I-CCK Pancreas
T2 construct: The whole pancreas was dissected free of fat tissue and was homogenized; from tissue; host or cells: rat whole pancreas, membrane preparation
T2 sequence (P30551 1-444): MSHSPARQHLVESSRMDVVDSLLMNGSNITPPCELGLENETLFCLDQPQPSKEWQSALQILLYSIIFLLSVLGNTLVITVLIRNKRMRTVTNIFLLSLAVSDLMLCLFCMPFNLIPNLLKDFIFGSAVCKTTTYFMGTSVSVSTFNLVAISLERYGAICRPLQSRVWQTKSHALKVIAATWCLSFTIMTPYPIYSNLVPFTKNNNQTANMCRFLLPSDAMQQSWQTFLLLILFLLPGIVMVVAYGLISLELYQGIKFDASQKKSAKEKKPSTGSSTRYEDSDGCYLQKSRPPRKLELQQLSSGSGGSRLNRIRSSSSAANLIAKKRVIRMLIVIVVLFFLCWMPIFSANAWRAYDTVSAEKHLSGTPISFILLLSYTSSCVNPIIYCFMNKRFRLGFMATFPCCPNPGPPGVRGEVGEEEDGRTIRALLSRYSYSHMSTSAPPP
Protocol: 1. CCK Receptor Binding (Pancreas)
CCK-33 was radiolabeled with ^125 I-Bolton Hunter reagent (2000 Ci/mmole) as described by Sankara et al. (J. Biol. Chem. 254: 9349-9351, 1979). Receptor binding was performed according to Innis and Snyder (Proc. Natl. Acad. Sci. 77: 6917-6921, 1980) with the minor modification of adding the additional protease inhibitors, phenyl-methane sulfonyl fluoride and o-phenanthroline. The latter two compounds have no effect on the ^125 I-CCK receptor binding assay.
Male Sprague-Dawley rats (200-350g) were sacrificed by decapitation. The whole pancreas was dissected free of fat tissue and was homogenized in 20 volumes of ice-cold 50 mM, Tris HCl (pH 7.7 at 25° C.) with a Brinkmann Polytron PT 10. The homogenates were centrifuged at 48,000 g for 10 min. Pellets were resuspended in Tris Buffer, centrifuged as above and resuspended in 200 volumes of binding assay buffer (50 mM Tris HCl, pH 7.7 at 25° C., 5 mM dithiothrietol, 0.1 mM bacitracin, 1.2 mM phenylmethane sulfonyl fluoride and 0.5 mM o-phenanthroline). […] All assays were run in duplicate or triplicate. The reaction mixtures were incubated at 37° C. for 30 minutes and centrifuged in a Beckman Microfuge (4 minutes) immediately after adding 1 ml of ice-cold incubation buffer. The supernatant was aspirated and discarded, pellets were counted with a Beckman gamma 5000. For Scatchard analysis (Ann. N.Y. Acad. Sci. 51: 660, 1949), ^125 I-CCK-33 was progressively diluted with increasing concentrations of CCK-33.

[3] = target: T3, gastrin receptor (Cavia porcellus, UniProt H0VZC5); assay: Gastrin receptor binding in guinea pig gastric glands; set-up: species or system guinea pig (male Hartley); settings: read-out: IC^50 Gastrin
T3 construct: Guinea pig gastric mucosal glands were prepared by the procedure of Berglingh and Obrink; from tissue; host or cells: guinea pig gastric mucosal glands
Protocol: Gastrin antagonist activity of compounds of Formula I is determined using the following assay: […]
Gastrin Receptor Binding in Guinea Pig Gastric Glands Preparation of guinea pig gastric mucosal glands
Guinea pig gastric mucosal glands were prepared by the procedure of Berglingh and Obrink Acta Physiol. Scand. 96: 150 (1976) with a slight modification according to Praissman et al. C. J. Receptor Res. 3: (1983). Gastric mucosa from guinea pigs (300-500 g body weight, male Hartley) were washed thoroughly and minced with fine scissors in standard buffer consisting of the following: 130 mM NaCl, 12 mM NaHCO3, 3 mM NaH2 PO4, 3 mM K2 HPO4, 2 mM MgSO4, 1 mM CaCl2, 5 mM glucose and 4 mM L-glutamine, 25 mM HEPES at pH 7.4. The minced tissues were washed and then incubated in a 37° C. shaker bath for 40 minutes with the buffer containing 0.1% collagenase and 0.1% BSA and bubbled with 95% O2 and 5% CO2. The tissues were passed twice through a 5 ml glass syringe to liberate the gastric glands, and then filtered through 200 mesh nylon. The filtered glands were centrifuged at 270 g for 5 minutes and washed twice by resuspension and centrifugation.

[4] = system: CCK-A receptors; settings: in words; cited from earlier work
[5] = system: stomach gastrin receptor; settings: in words; cited from earlier work
[6] = system: CCK-B receptors; settings: in words; cited from earlier work
[7] = rat, brain synaptosomal fraction; cited from earlier work

T1 sequence (H0VZC5 entry or part of it): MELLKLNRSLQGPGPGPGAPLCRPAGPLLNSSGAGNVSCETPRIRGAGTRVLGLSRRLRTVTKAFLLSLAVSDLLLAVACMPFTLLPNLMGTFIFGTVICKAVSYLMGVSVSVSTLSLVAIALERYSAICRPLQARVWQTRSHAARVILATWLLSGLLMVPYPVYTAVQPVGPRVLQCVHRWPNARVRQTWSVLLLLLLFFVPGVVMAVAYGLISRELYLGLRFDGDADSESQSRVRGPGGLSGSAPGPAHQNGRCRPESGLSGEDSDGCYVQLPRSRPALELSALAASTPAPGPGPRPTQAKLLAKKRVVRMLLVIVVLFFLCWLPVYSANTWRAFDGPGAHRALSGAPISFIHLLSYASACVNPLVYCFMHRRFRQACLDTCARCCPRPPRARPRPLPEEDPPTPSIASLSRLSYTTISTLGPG
T3 sequence (H0VZC5 entry or part of it): as above

Compound | IC50 [1] [nM] | IC50 [2] [nM] | IC50 [3] [nM] | affinity for CCK-A receptors [4] | affinity for CCK-B receptors [6] | other results
Cc1cccc(NC(=O)NC2N=C(c3ccccc3)c3ccccc3N=C2NCCCN2CCCC2=O)c1 (stereo not shown) [Example 14, N-[3-Methylphenyl]-N'-[2-((3-(2-oxo)pyrrolidinyl)propyl)amino-5-phenyl-3H-1,4-benzodiazepin-3-yl]-urea] | 15 | 590 | 13 | – | – | –
CSCC[C@H](NC(=O)[C@H](Cc1ccc(O)cc1)NC(=O)[C@@H](N)CC(=O)O)C(=O)NCC(=O)N[C@@H](Cc1c[nH]c2ccccc12)C(=O)N[C@@H](CCSC)C(=O)N[C@@H](CC(=O)O)C(=O)N[C@@H](Cc1ccccc1)C(N)=O [CCK-8d] | – | – | – | lower affinity | – | –
Cc1cccc(NC(=O)NC2N=C(c3ccccc3)c3ccccc3N=C2NCC(=O)N2CCCC2)c1 (stereo not shown) [Example 11, 1-[[(3-((3-Methylphenylaminocarbonyl)amino)-5-phenyl-3H-1,4-benzodiazepin-2-yl)amino]acetyl]-pyrrolidine] | 5.9 | 1100 | 20 | – | – | –
CSCC[C@H](NC(=O)[C@@H](N)Cc1c[nH]c2ccccc12)C(=O)N[C@@H](CC(=O)O)C(=O)N[C@@H](Cc1ccccc1)C(N)=O [CCK-4] | – | – | – | lower affinity | high affinity | potency at stomach gastrin receptor [5]: minimum fully potent CCK sequence
CSC1=Nc2ccccc2C(c2ccccc2F)=N[C@@H]1Cc1c[nH]c2ccccc12 [Example 2, 2-Methylthio-3(R)-(3'-indolyl)methyl-5-(2'-fluorophenyl)2H-1,4-benzodiazepine] | – | 17000 | – | – | – | –
Cc1cccc(NC(=O)NC2N=C(c3ccccc3)c3ccccc3N=C2NCC(=O)N2CCN(C)CC2)c1 (stereo not shown) [Example 12, 1-Methyl-4-[[(3-((((3-methylphenyl)amino)carbonyl)amino)-5-phenyl-3H-1,4-benzodiazepin-2-yl)amino]acetyl]-piperazine] | 124 | 1000 | 180 | – | – | –
gastrin: neuropeptide structurally related to cholecystokinin | – | – | – | lower affinity | – | –
CSCC[C@H](NC(=O)[C@H](Cc1c[nH]c2ccccc12)NC(=O)CCNC(=O)OC(C)(C)C)C(=O)N[C@@H](CC(=O)O)C(=O)N[C@@H](Cc1ccccc1)C(N)=O [pentagastrin] | – | – | – | – | high affinity | –
CCN(CC)CCCNC1=Nc2ccccc2C(c2ccccc2)=NC1NC(=O)Nc1cccc(C)c1 (stereo not shown) [Example 13, N-[2-[((3-Diethylamino)propyl)amino]-5-phenyl-3H-1,4-benzodiazepin-3-yl]-N'-[3-methylphenyl]-urea] | 78 | 14000 | 120 | – | – | –
CSCC[C@H](NC(=O)[C@H](Cc1ccc(OS(=O)(=O)O)cc1)NC(=O)[C@@H](N)CC(=O)O)C(=O)NCC(=O)N[C@@H](Cc1c[nH]c2ccccc12)C(=O)N[C@@H](CCSC)C(=O)N[C@@H](CC(=O)O)C(=O)N[C@@H](Cc1ccccc1)C(N)=O [CCK-8s, H-Asp-Tyr(SO3 H)-Met-Gly-Trp-Met-Asp-Phe-NH2] | – | – | – | high affinity | high affinity | half-life [7]: less than 1 hour
